Source: PubChem BioAssay AID1418 (Emory University Molecular Libraries Screening Center, 2008)
Calls of active or inactive are those of the source. The rule behind the calls is not given here.

Target: Induced myeloid leukemia cell differentiation protein Mcl-1 (Homo sapiens) (UniProt Q07820)
Experiment: blockers of Bid binding to Mcl-1 – biochemical, TR-FRET, dose response (AID 1418)
Conditions: Mcl-1/Bid peptide binding, TR-FRET (europium/Dy647), 2 hr

Sequence of Induced myeloid leukemia cell differentiation protein Mcl-1 (Homo sapiens) (Q07820 whole entry, looked up): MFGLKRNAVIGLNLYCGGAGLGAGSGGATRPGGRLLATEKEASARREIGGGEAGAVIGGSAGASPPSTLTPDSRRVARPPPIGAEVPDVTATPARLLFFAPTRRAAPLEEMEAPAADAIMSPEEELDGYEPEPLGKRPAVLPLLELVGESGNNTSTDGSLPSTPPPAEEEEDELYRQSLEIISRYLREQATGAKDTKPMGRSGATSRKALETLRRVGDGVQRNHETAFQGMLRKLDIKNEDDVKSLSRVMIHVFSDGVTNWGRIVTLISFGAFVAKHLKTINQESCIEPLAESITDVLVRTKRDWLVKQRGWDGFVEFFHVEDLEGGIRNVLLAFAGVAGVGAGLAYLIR

**Q.** Which IC50 does the source give for CCOc1cc(C(=S)N2CCOCC2)ccc1O here?
**A.** > 54 µM (inactive)

**Q.** Which IC50 does the source give for O=C(CP(=O)(c1ccccc1)c1ccccc1)Nc1nc2ccc(Cl)cc2s1 here?
**A.** > 54 µM (inactive)

**Q.** For Cc1ccsc1C(=O)OCC(=O)N1CCOCC1, which IC50 is on record?
**A.** > 54 µM (inactive)

**Q.** How did the IC50 turn out when C#CCOCCOCCOCCNc1nc(N2CCN(C(=O)[C@H](CCCCN)n3cc([C@@H](N)C(C)CC)nn3)CC2)nc(N2CCN(C(=O)[C@H](CCCCN)n3cc([C@@H](N)CO)nn3)CC2)n1 (some centres undefined) was run?
**A.** 0.63 µM

**Q.** Nc1nnc(SCC(=O)N2CCN(c3ccccc3)CC2)n1-c1ccccc1 was tested. Which IC50 did it give?
**A.** > 54 µM (inactive)

**Q.** COc1cc(NC(=O)C2CCN(S(=O)(=O)c3cccc4nonc34)CC2)cc(OC)c1 was tested. Which IC50 did it give?
**A.** > 54 µM (inactive)

**Q.** For O=C(O)c1[nH]c2ccccc2c1C=NCc1ccccc1Cl, which IC50 is on record?
**A.** > 54 µM (inactive)

**Q.** Cc1csc2ncnc(N3CCN(C(=S)Nc4ccc(F)cc4F)CC3)c12 was tested. Which IC50 did it give?
**A.** > 54 µM (inactive)

**Q.** How did the IC50 turn out when COc1ccc(C(=O)Nc2cccc(C)c2)cc1S(=O)(=O)N1CCOCC1 was run?
**A.** > 54 µM (inactive)

**Q.** Which IC50 does the source give for COc1cc(OC)cc(C(=O)Nc2ccc(-c3nc4ccccc4o3)c(O)c2)c1 here?
**A.** 3.61 µM

**Q.** For COc1ccccc1C1CC(c2ccccc2)Nc2ncnn21 (centres undefined), which IC50 is on record?
**A.** > 54 µM (inactive)

**Q.** Which IC50 does the source give for Cc1ccc(-n2c(C)n[nH]c2=S)cc1C here?
**A.** > 54 µM (inactive)

**Q.** For Cc1cc(C)cc(N(CC(=O)NC2CCC(C)CC2)S(=O)(=O)c2c(C)noc2C)c1 (centres undefined), which IC50 is on record?
**A.** > 54 µM (inactive)

**Q.** How did the IC50 turn out when COc1cc(Cl)c(C)cc1NC(=O)CCCn1c(=O)oc2ccccc21 was run?
**A.** > 54 µM (inactive)

**Q.** With O=C(CSc1nnc2scc(-c3ccccc3)n12)N1CCN(Cc2ccccc2)CC1 as the compound, how does the IC50 read?
**A.** > 54 µM (inactive)

**Q.** COCCN1Cc2cccc(C(=O)Nc3cccc(C)c3C)c2C1=O was tested. Which IC50 did it give?
**A.** > 54 µM (inactive)

**Q.** How did the IC50 turn out when COC(=O)c1ccc(-c2nc3cc(Cl)c(N)cc3s2)cc1 was run?
**A.** > 54 µM (inactive)

**Q.** With CC(C)[C@H](NC(=O)NCCC1=CCCCC1)C(=O)O as the compound, how does the IC50 read?
**A.** > 54 µM (inactive)

**Q.** For O=C1/C(=C/C=C/c2ccco2)SC(=S)N1NS(=O)(=O)c1ccccc1, which IC50 is on record?
**A.** 2.31 µM

**Q.** Which IC50 does the source give for COc1ccc(N2C(=O)CC(S/C(N)=N/N=C/c3ccnc4ccccc34)C2=O)cc1 (centres undefined) here?
**A.** > 54 µM (inactive)

**Q.** For Cc1ccc(S(=O)(=O)N(CC(=O)N/N=C/c2cccc(Cl)c2)c2cccc3cccnc23)cc1, which IC50 is on record?
**A.** > 54 µM (inactive)

**Q.** With COc1ccc(C(=O)Nc2ccc3c(c2)C(=O)c2ccccc2C3=O)cc1OC as the compound, how does the IC50 read?
**A.** 0.6 µM

**Q.** For COc1cc(/C=C(/C#N)c2nc3ccccc3c(=O)[nH]2)ccc1O, which IC50 is on record?
**A.** 1.15 µM

**Q.** O=C(CN1C(=O)S/C(=C\c2ccc(Cl)cc2)C1=O)NNC(=O)c1ccccc1O was tested. Which IC50 did it give?
**A.** 7.45 µM

**Q.** How did the IC50 turn out when CSc1nc(SCCO)c2sc3nc(-c4ccco4)c4c(c3c2n1)CC(C)(C)OC4 was run?
**A.** 7.5 µM

**Q.** For COc1ccccc1NC(=O)CSc1nc2ccccc2cc1Cc1ccccc1, which IC50 is on record?
**A.** > 54 µM (inactive)

**Q.** With N#C/C(=C1/CCCCCN1)c1nc2ccccc2s1 as the compound, how does the IC50 read?
**A.** > 54 µM (inactive)

**Q.** With O=[N+]([O-])c1ccc(N/N=C/c2cn(Cc3ccc(F)cc3)c3ccccc23)nc1 as the compound, how does the IC50 read?
**A.** > 54 µM (inactive)

**Q.** Which IC50 does the source give for Cc1cccc(NC(=S)c2nc3ccccc3s2)c1 here?
**A.** > 54 µM (inactive)

**Q.** For COc1ccc2[nH]c(=O)c(CNC3CCCCC3)cc2c1, which IC50 is on record?
**A.** > 54 µM (inactive)

**Q.** Which IC50 does the source give for Cc1nc2c(c(=O)n1CCC1=CCCCC1)c1nc3ccccc3nc1n2/N=C/c1ccco1 here?
**A.** > 54 µM (inactive)

**Q.** Which IC50 does the source give for O=C(N/N=C/c1ccc([N+](=O)[O-])o1)c1cc2c(ccc3ccccc32)o1 here?
**A.** 1.71 µM

**Q.** CC1CC(C)CN(CCOCCSc2ccccc2)C1 (centres undefined) was tested. Which IC50 did it give?
**A.** > 54 µM (inactive)

**Q.** Which IC50 does the source give for C#CCOCCOCCOCCNc1nc(N2CCN(C(=O)[C@H](Cc3cc4ccccc4[nH]3)n3cc([C@@H](N)CC(C)C)nn3)CC2)nc(N2CCN(C(=O)[C@H](Cc3cc4ccccc4[nH]3)n3cc([C@@H](N)CC(C)C)nn3)CC2)n1 here?
**A.** 24.2 µM

**Q.** COc1ccc(N=Nc2ccc(O)c3ncccc23)cc1 was tested. Which IC50 did it give?
**A.** 15.1 µM

**Q.** With COc1ccc(-n2cc(-c3ccc(OC(F)F)cc3)[n+]3c2CCCCC3)cc1 as the compound, how does the IC50 read?
**A.** > 54 µM (inactive)

**Q.** With CN(C)c1ccc(-c2nnc(-c3ccc(S(=O)(=O)C(F)F)cc3)o2)cc1 as the compound, how does the IC50 read?
**A.** 2.48 µM

**Q.** For O=C1NC(=S)N/C1=C/c1ccc(-c2c(Br)cc([N+](=O)[O-])cc2Br)o1, which IC50 is on record?
**A.** 1.59 µM

**Q.** With COc1ccccc1N1CCN(CC(=O)c2c(C)[nH]c3ccccc23)CC1 as the compound, how does the IC50 read?
**A.** > 54 µM (inactive)

**Q.** How did the IC50 turn out when Cc1ccc(S(=O)(=O)/N=S(\C)C(C)C)cc1 (centres undefined) was run?
**A.** > 54 µM (inactive)

**Q.** With N=c1cc(C2(O)CCCCC2)n2c(nc3ccccc32)s1 as the compound, how does the IC50 read?
**A.** > 54 µM (inactive)

**Q.** With O=C(Nc1ccc(Nc2ccncc2)cc1)c1ccc(Nc2ccnc3ccc([N+](=O)[O-])cc23)cc1[N+](=O)[O-] as the compound, how does the IC50 read?
**A.** 1.38 µM

**Q.** With O=C(O)c1ccccc1NS(=O)(=O)c1ccc(NNC(=S)Nc2ccc(OC(F)F)cc2)c([N+](=O)[O-])c1 as the compound, how does the IC50 read?
**A.** 0.62 µM

**Q.** Cc1ccc([N+](=O)[O-])cc1-c1ccc(/C=C(\C#N)c2[nH]nc(N)c2C#N)o1 was tested. Which IC50 did it give?
**A.** 3.74 µM

**Q.** For Cc1ccc(CSc2nnc(SCC(=O)N/N=C/c3c[nH]c4ccccc34)s2)cc1, which IC50 is on record?
**A.** 0.53 µM

**Q.** Which IC50 does the source give for O=c1oc2c(O)c(O)cc3c(=O)oc4c(O)c(O)cc1c4c23 here?
**A.** 0.57 µM

**Q.** Which IC50 does the source give for Cc1ccc2cccc(Oc3ncnc4scc(-c5ccc(Cl)cc5)c34)c2n1 here?
**A.** > 54 µM (inactive)

**Q.** O=C1NC(=S)N(C2CC2)C(=O)/C1=C/c1ccc2c(c1)CCN2CCCCl was tested. Which IC50 did it give?
**A.** 0.66 µM

**Q.** O=C(NCc1ccco1)c1cccn2c(=O)c3cc4ccccc4cc3nc12 was tested. Which IC50 did it give?
**A.** 0.52 µM

**Q.** Cc1cccc(N(CC(=O)NC2CCCC2)C(=O)c2cc3cc4cccc(C)c4nc3s2)c1C was tested. Which IC50 did it give?
**A.** > 54 µM (inactive)

**Q.** For CCc1c(C(=O)Nc2cc(C)ccc2OC)[nH]c(C)c1C(C)=O, which IC50 is on record?
**A.** > 54 µM (inactive)

**Q.** With Cc1ccc(NC(=S)N2CCN(c3ncccn3)CC2)cc1C as the compound, how does the IC50 read?
**A.** > 54 µM (inactive)

**Q.** Which IC50 does the source give for N=C1/C(=C/c2ccc(-c3cccc(C(=O)O)c3)o2)C(=O)N=C2SC=C(c3ccccc3)N12 here?
**A.** 1.02 µM

**Q.** Cc1nc(COC(=O)c2cc(O)c3ccccc3c2O)cs1 was tested. Which IC50 did it give?
**A.** 0.9 µM

**Q.** Which IC50 does the source give for O=C1C(=Cc2cccn2-c2ccccc2)C(=O)c2ccccc21 here?
**A.** 2.58 µM

**Q.** For Cc1cccc(Cn2c(C)nc3c(N)c(C)c(C)cc32)c1, which IC50 is on record?
**A.** > 54 µM (inactive)

**Q.** Which IC50 does the source give for Cc1nc(N)sc1-c1csc(Nc2ncccn2)n1 here?
**A.** 3.3 µM

**Q.** With CN(C)c1ccc(-c2nn3c(-c4ccc(Cl)cc4Cl)nnc3s2)cc1 as the compound, how does the IC50 read?
**A.** 0.77 µM

**Q.** With O=C(CSc1nccc(=O)[nH]1)c1ccccc1Br as the compound, how does the IC50 read?
**A.** > 54 µM (inactive)

**Q.** With Cc1cc(C)c(S(=O)(=O)/N=C2/C=C(Sc3ncn[nH]3)C(=O)c3ccccc32)cc1C as the compound, how does the IC50 read?
**A.** 1.19 µM

**Q.** For COc1ccc(NC(=O)CN2CCOCC2)cc1, which IC50 is on record?
**A.** > 54 µM (inactive)

**Q.** How did the IC50 turn out when CCCc1cc(=O)[nH]c(SCC(=O)c2c(C)[nH]c3ccccc23)n1 was run?
**A.** > 54 µM (inactive)

**Q.** Cc1ccc(-c2cn(-c3ccccc3)c(SCC(N)=O)n2)cc1C was tested. Which IC50 did it give?
**A.** > 54 µM (inactive)

**Q.** With C#CCOCCOCCOCCNc1nc(N2CCN(C(=O)[C@H](CCC(=O)O)n3cc(C(N)CC(C)C)nn3)CC2)nc(N2CCN(C(=O)[C@H](CCC(=O)O)n3cc(C(N)CC(C)C)nn3)CC2)n1 (some centres undefined) as the compound, how does the IC50 read?
**A.** 15.2 µM

**Q.** With O=C(Cn1c2ccccc2c(=O)c2ccccc21)N/N=C/c1cc([N+](=O)[O-])ccc1N1CCCCC1 as the compound, how does the IC50 read?
**A.** 0.65 µM

**Q.** CCN(CC)S(=O)(=O)c1ccc(NC(=O)Nc2cccc(C(F)(F)F)c2)cc1 was tested. Which IC50 did it give?
**A.** > 54 µM (inactive)

**Q.** Which IC50 does the source give for O=C1CN(C(=O)CNCc2ccccc2)c2ccccc2N1 here?
**A.** > 54 µM (inactive)

**Q.** With Nc1c(C(=O)NC2CC2)sc2nc3c(c(-c4ccco4)c12)CC/C3=C/c1ccco1 as the compound, how does the IC50 read?
**A.** > 54 µM (inactive)

**Q.** For Cc1cccc2cc(/C=N/NC(=O)CN3CCOCC3)c(Cl)nc12, which IC50 is on record?
**A.** > 54 µM (inactive)
